Laboratory results: patent publication US9512486B2, “Materials, methods, and systems for treating cancer” (The Institute of Cancer Research: Royal Cancer Hospital, priority 2012, dated 2016)

Legend:
Format in all cases: cell-based
[1] = tested on: CAL51 cells transfected with siRNA directed against RAD51D; test: Olaparib sensitivity after RAD51D silencing, cell viability (Cell TitreGlo), CAL51; conditions: siRAD51D vs siCONTROL and siBRCA2, olaparib titration for 7 days, FIG. 3A
Excerpt: (§1) This method has clinical utility both for individuals with cancer and their relatives. Cancer patients with RAD51D mutations may benefit from specific therapies such as Poly (ADP-Ribose) Polymerase (PARP) inhibitors, which have shown efficacy in patients with impairment of HR due to mutations in BRCA1 or BRCA2. To investigate this we used RNA interference (RNAi) and assessed the relationship between RAD51D loss of function and the sensitivity of tumor cells to a clinical PARP inhibitor, olaparib (AstraZeneca) 4-[(3-[(4-cyclopropylcarbonyl)piperazin-4-yl]carbonyl)-4-fluorophenyl]methyl(2H)phthalazin-1-one. Referring now to FIG. 3. The effect of RAD51D silencing on olaparib sensitivity. CAL51 (FIG. 3A) or MCF7 (FIG. 3B) cells were transfected with siCONTROL, siRNA directed against RAD51D or siRNA directed against BRCA2 and then treated with olaparib for 7 days before assaying for cell viability. Wild-type CHO cells or CHO cells mutated in RAD51D were treated with olaparib for 7 days before assaying for cell viability (FIG. 3C).
(§2) Non-silencing BRCA2 and RAD51D SIGENOME siRNAs (Dharmacon, Lafayette, Colo., USA) were used. […] After 7 days continuous culture, cell viability was estimated using Cell TitreGlo reagent (Promega Madison, Wis., USA) and surviving fractions calculated as previously described.

[2] = tested on: MCF7 cells transfected with siRNA directed against RAD51D; test: Olaparib sensitivity after RAD51D silencing, cell viability (Cell TitreGlo), MCF7; conditions: siRAD51D vs siCONTROL and siBRCA2, olaparib titration for 7 days, FIG. 3B
Excerpt: as §1, §2

[3] = tested on: CHO cells mutated in RAD51D; test: Olaparib sensitivity of wild-type versus RAD51D mutated CHO cells, cell viability; conditions: CHO RAD51D WT (51D1.3 clone) vs RAD51D deficient CHO (51D1 clone), olaparib for 7 days, FIG. 3C
Excerpt: as §1, §2

## O=C(c1cc(Cc2n[nH]c(=O)c3ccccc23)ccc1F)N1CCN(C(=O)C2CC2)CC1 [olaparib, 4-[(3-[(4-cyclopropylcarbonyl)piperazin-4-yl]carbonyl)-4-fluorophenyl]methyl(2H)phthalazin-1-one]
[1]
  olaparib sensitivity (Surviving Fraction): olaparib sensitivity of a magnitude similar to that achieved using silencing of BRCA2
[2]
  olaparib sensitivity (Surviving Fraction): olaparib sensitivity of a magnitude similar to that achieved using silencing of BRCA2
[3]
  olaparib sensitivity (Surviving Fraction): RAD51D selective effect
[3]; listed as Olaparib
  olaparib sensitivity (Surviving Fraction): particularly effective in causing the death of cells that have an inactivating mutation of RAD51D
